Reference: patent US9618513B2, “Compositions and methods for detecting and treating colorectal cancer” (The Regents of the University of Michigan, priority 2014, dated 2017)

Columns and labels:
Assay type in all cases: cell-based, human
[1] = test system: SUZ12, Sox2; assay: SUZ12 and Sox2 expression after DOT1L/H3K79me2 inhibitor (FIG. 21A); conditions: 10 uM
[2] = test system: STAT3 occupancy on gene promoters; assay: STAT3-ChIP assay
Description: (A) IL-22 induced STAT3 phosphorylation. Colon cancer cells were treated with IL-22 for different time points. The protein levels of phosphorylated STAT3 and STAT3 were detected by Western blotting. (B, C) IL-22 induced colon cancer spheres via STAT3. Sphere assay was performed with shSTAT3 colon cancer cells in the presence of IL-22. Results were shown as sphere images (b) and the mean numbers of spheres in triplicate (c). (n=5. P<0.01). (D-F) IL-22 stimulated colon cancer sternness gene expression via STAT3. Colon cancer cells expressing shSTAT3 or scrambled vector were cultured with IL-22. Stem cell core gene mRNAs were detected by real-time PCR after 6 hours (n=5, *P<0.05). (G, H) IL-22 causes STAT3 occupancy on SOX2 promoter areas. STAT3-ChIP assay was performed in DLD-1 cells cultured with or without IL-22. One of at least three experiments is shown.
(A-C)IL-22 increases STAT3 occupancy on the DOT1L (A), AFF4 (B), and MLLT3 (C) proximal promoter. STAT3-ChIP assay was performed in DLD-1 colon cancer cells cultured with or without IL-22. One of three experiments is shown. (D-F) STAT3 knock down reduces H3K79me2 occupancy at proximal promoters of core stem cell genes. H3K79me2-ChIP was performed in colon cancer cells cultured with IL-22 for 24 hours. One of three experiments is shown.
(§1) A. The protein level of phosphorylated STAT3, STAT1 and STATS were activated by IL-22. B. The effect of STAT3 knock down. C. The effect of IL-22 on cell proliferation was analyzed using H^3 Thymidine Incorporation in Stat3 knock down cells. D. Knock down of STAT3 reduced the expression of EZH2 and SUZ12. E. Based on the ENCODE STAT3-ChIP-Seq data base, STAT3 occupancy on the promoter areas of SUZ12 and EED is shown. F. SUZ12/EED DNA was detected by ChIP assay using an antibody against STAT3, c-fos was used as a positive control.
ChIP assay was performed according to the protocol with exceptions stated below (Upstate, Millipore; http://www. (followed by) millipore.com/techpublications/tech1/mcproto407). Crosslinking was performed with 1% formaldehyde or 1% paraformaldehyde for 10 minutes. […]

[3] = test system: EZH2, SUZ12, EED, CBX8; assay: PcG / PRC2 component expression (real-time PCR, western blot)
Description: (§2) A, C. Cell proliferation was analyzed using H^3 Thymidine Incorporation. B. The level of total H3K79m2 and H3K27me3 was measured by Western Blot. D. PcG proteins of EZH2, EED, SUZ12 was increased with IL-22(20 ng/ml) treatment. E. EZH2, SUZ12 and EED was detected by Western Blot after IL-22 treated for 24 h or 48 h. F. EZH2 inhibitor DZNep reduced cell proliferation. G.H. The efficiency of EZH2 and SUZ12 knock down was tested by Western Blot. I.J. Cell proliferation was analyzed using H^3 Thymidine Incorporation after knock down of EZH2 and SUZ12. K.L. Relative expression of cyclin-dependent kinase inhibitors (p16 and p18) in shEZH2, shSUZ12 and Dznep treated cells after IL-22 treatment. M. The level of H3K27me3 in the promoter of p16 and p18 was analyzed by ChIP assay.
as §1
The mRNAs were quantified by real-time RT-PCR. SYBR Green Master Mix was used to detect fluorescence. Relative expression was calculated according to the Ct value with normalization to GAPDH.
Western Blot assay was performed with specific antibodies against human Stat3, phosphorylate Stat3 (Cell Signaling), Sox2, SUZ12(Santa Cruz biotechnology), EZH2 (Abcam), H3K27me3 and H3K79me2 (Millipore).

[4] = test system: H3K27me3 in the promoter of p16 and p18; assay: H3K27me3 ChIP at p16 and p18 promoters; conditions: after IL-22 stimulation
Description: as §2
ChIP assay was performed according to the protocol (Upstate, Millipore; htt, followed by, p://www.millip, followed by, ore.com/techpublica, followed by, tions/tech1/mcproto407). Crosslinking was performed with 1% formaldehyde or 1% paraformaldehyde for 10 min. To enhance cell lysis, we ran the lysate through a 27 g needle three times and flash froze it in −80° C. Sonication was then performed with the Misonix 4000 water bath sonication unit at 15% amplitude for 10 min. Protein/DNA complex was precipitated by specific antibodies against H3K79me2, H3K27me3 (Millipore), Stat3 (Cell Signaling) and IgG control (Millipore). […]

Molecule | SUZ12 expression [1] | Sox2 expression [1] | recruitment of STAT3 to the SUZ12 and EED promoter ([2]; ChIP realtime PCR) | STAT3 binding on the SOX2 promoter area ([2]; DLD-1 with or without IL-22) | STAT3 binding to the DOT1L, AFF4 and MLLT3 promoter ([2]; DLD-1 with or without IL-22) | protein level of EZH2 and SUZ12 ([3]; FIG. 19D) | CBX8 expression ([3]; IL-22 20 ng/ml) | mRNA expression level of EED ([3]; IL-22 20 ng/ml) | mRNA expression level of SUZ12 ([3]; IL-22 20 ng/ml) | EED and SUZ12 expression (western blotting) ([3]; IL-22 24 h or 48 h) | EZH2 expression (western blotting) ([3]; IL-22 24 h or 48 h) | level of H3K27m3 in the promoter of p16 and p18 [4]
CC(C)N(CCCNC(=O)Nc1ccc(C(C)(C)C)cc1)C[C@H]1O[C@@H](n2ccc3c(N)ncnc32)[C@H](O)[C@@H]1O [EPZ004777] | no effect | reduce |  |  |  |  |  |  |  |  |  | 
IL-22: recombinant IL-22 (R&D systems), cytokine interleukin-22 |  |  | significantly increased | increased | increased | up regulate | increased | increased to a lesser extent | significantly increase | increased to a lesser extent | increased | increased
